Results: PubChem BioAssay (NCI)
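Method: 48-hour compound exposure of cells in 96-well plates, five concentrations, linear interpolation of endpoints. TGI denotes the concentration required for complete inhibition of growth.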

Columns and labels:
Assay in all cases: NCI-60 cell line screen, 48 h
[1] = tested on: OVCAR-8 ovarian
[2] = tested on: SNB-78 CNS
[3] = tested on: CCRF-CEM leukemia
[4] = tested on: UACC-257 melanoma
[5] = tested on: SNB-19 CNS
[6] = tested on: NCI-H226 lung
[7] = tested on: A498 renal
[8] = tested on: SF-295 CNS
[9] = tested on: EKVX NSCLC
[10] = tested on: HOP-62 NSCLC
[11] = tested on: HCT-116 colon
[12] = tested on: DMS 114 small cell lung
[13] = tested on: UO-31 renal
[14] = tested on: IGROV1 ovarian
[15] = tested on: U251 CNS
[16] = tested on: SK-MEL-28 melanoma
[17] = tested on: OVCAR-5 ovarian
[18] = tested on: TK-10 renal
[19] = tested on: NCI-H460 lung
[20] = tested on: SK-OV-3 ovarian
[21] = tested on: RXF 393 renal
[22] = tested on: UACC-62 melanoma
[23] = tested on: HT29 colon
[24] = tested on: M14 melanoma
[25] = tested on: NCI-H23 lung
[26] = tested on: M19-MEL melanoma
[27] = tested on: SF-268 CNS
[28] = tested on: MOLT-4 leukemia
[29] = tested on: HOP-92 NSCLC
[30] = tested on: HL-60(TB) leukemia
[31] = tested on: A549 NSCLC
[32] = tested on: NCI-H522 lung
[33] = tested on: SR leukemia
[34] = tested on: KM12 colon
[35] = tested on: SK-MEL-5 melanoma
[36] = tested on: HS 578T breast
[37] = tested on: CAKI-1 renal
[38] = tested on: K-562 leukemia
[39] = tested on: SF-539 CNS
[40] = tested on: ACHN renal
[41] = tested on: MCF7 breast
[42] = tested on: HCC-2998 colon
[43] = tested on: HCT-15 colon
[44] = tested on: MALME-3M melanoma
[45] = tested on: OVCAR-4 ovarian
[46] = tested on: LOX IMVI melanoma
[47] = tested on: OVCAR-3 ovarian
[48] = tested on: MDA-N
[49] = tested on: DU-145 prostate
[50] = tested on: COLO 205 colon
[51] = tested on: SK-MEL-2 melanoma
[52] = tested on: NCI/ADR-RES ovarian
[53] = tested on: SN12C renal
[54] = tested on: BT-549 breast
[55] = tested on: PC-3 prostate
[56] = tested on: MDA-MB-435
[57] = tested on: SNB-75 CNS
[58] = tested on: MDA-MB-231 breast
[59] = tested on: RPMI-8226 leukemia
[60] = tested on: SW-620 colon
[61] = tested on: T-47D breast
[62] = tested on: 786-0 renal

`CC1(Cl)CCC2(CC(Br)=CC3OC32C)CC1Br` (centres undefined) showed a TGI [1] of 91.7 µM, a TGI [2] of 86.6 µM and a TGI [3] of 53.5 µM. For the same compound, the TGI [4] was 42.4 µM, the TGI [5] was > 100 µM and the TGI [6] was 47.3 µM. For the same compound, the TGI [7] was 68.8 µM, the TGI [8] was 57.6 µM and the TGI [9] was > 100 µM. It also gave a TGI [10] of 87.4 µM, a TGI [11] of 40.2 µM and a TGI [12] of 83.2 µM. For the same compound, the TGI [13] was 66.6 µM, the TGI [14] was > 100 µM and the TGI [15] was 41.8 µM. The TGI [16] was 69.9 µM, the TGI [17] was > 100 µM and the TGI [18] was > 100 µM. For the same compound, the TGI [19] was 71.1 µM, the TGI [20] was > 100 µM and the TGI [21] was 40.8 µM. The TGI [22] was 42.7 µM, the TGI [23] was 57 µM and the TGI [24] was > 100 µM. The TGI [25] was 49.9 µM, the TGI [26] was 81.2 µM and the TGI [27] was 50.1 µM. It also gave a TGI [28] of 52.4 µM, a TGI [29] of 78.8 µM and a TGI [30] of 38.7 µM. For the same compound, the TGI [31] was > 100 µM, the TGI [32] was 55.5 µM and the TGI [33] was 55.8 µM. The TGI [34] was > 100 µM.

In the case of `CCOC(=O)C(O)(NC(=O)c1ccccc1F)C(F)(F)F` (centres undefined), the TGI [35] is reported as > 100 µM, the TGI [36] is reported as > 100 µM and the TGI [37] is reported as > 100 µM. The TGI [1] was > 100 µM, the TGI [3] was > 100 µM and the TGI [38] was > 100 µM. The TGI [4] was > 100 µM, the TGI [39] was > 100 µM and the TGI [5] was > 100 µM. For the same compound, the TGI [6] was > 100 µM, the TGI [8] was > 100 µM and the TGI [9] was > 100 µM. For the same compound, the TGI [40] was > 100 µM, the TGI [10] was > 100 µM and the TGI [11] was > 100 µM. For the same compound, the TGI [41] was > 100 µM, the TGI [42] was > 100 µM and the TGI [13] was > 100 µM. The TGI [43] was > 100 µM, the TGI [44] was > 100 µM and the TGI [14] was > 100 µM. The TGI [45] was > 100 µM, the TGI [15] was > 100 µM and the TGI [46] was > 100 µM. The TGI [47] was > 100 µM, the TGI [16] was > 100 µM and the TGI [17] was > 100 µM. For the same compound, the TGI [48] was > 100 µM, the TGI [49] was > 100 µM and the TGI [50] was > 100 µM. The TGI [51] was > 100 µM, the TGI [52] was > 100 µM and the TGI [18] was > 100 µM. For the same compound, the TGI [53] was > 100 µM, the TGI [54] was > 100 µM and the TGI [20] was > 100 µM. The TGI [21] was > 100 µM, the TGI [22] was > 100 µM and the TGI [23] was > 100 µM. For the same compound, the TGI [55] was > 100 µM, the TGI [24] was > 100 µM and the TGI [25] was > 100 µM. The TGI [56] was > 100 µM, the TGI [27] was > 100 µM and the TGI [28] was > 100 µM. The TGI [57] was > 100 µM, the TGI [29] was > 100 µM and the TGI [30] was > 100 µM. For the same compound, the TGI [58] was > 100 µM, the TGI [31] was > 100 µM and the TGI [32] was > 100 µM. The TGI [59] was > 100 µM, the TGI [33] was > 100 µM and the TGI [60] was > 100 µM. For the same compound, the TGI [61] was > 100 µM and the TGI [34] was > 100 µM.

Compound `N=C(N)SCc1ccc(Cl)cc1Cl` (tested in a mixture with another compound) has a TGI [35] of 29.2 µM, a TGI [36] of 45.2 µM and a TGI [37] of 24.2 µM. The TGI [1] was > 100 µM, the TGI [3] was 15.5 µM and the TGI [38] was 25.5 µM. For the same compound, the TGI [4] was 20.7 µM, the TGI [39] was 31.9 µM and the TGI [5] was 47.6 µM. For the same compound, the TGI [6] was 40.9 µM, the TGI [7] was 27.5 µM and the TGI [8] was 31.3 µM. For the same compound, the TGI [9] was 37.2 µM, the TGI [40] was 23.1 µM and the TGI [10] was 30.2 µM. It also gave a TGI [11] of 25 µM, a TGI [41] of 28.5 µM and a TGI [42] of 21.5 µM. It also gave a TGI [13] of 23.1 µM, a TGI [43] of 35.1 µM and a TGI [44] of 34.2 µM. The TGI [14] was 42.9 µM, the TGI [45] was 38.8 µM and the TGI [15] was 28.5 µM. It also gave a TGI [46] of 38.8 µM, a TGI [47] of 28.1 µM and a TGI [16] of 45.3 µM. For the same compound, the TGI [17] was 35.7 µM, the TGI [48] was 21.6 µM and the TGI [49] was 29.8 µM. For the same compound, the TGI [50] was 39.6 µM, the TGI [51] was 27.5 µM and the TGI [52] was 73.9 µM. For the same compound, the TGI [18] was 18.8 µM, the TGI [53] was 27 µM and the TGI [62] was 26.9 µM. It also gave a TGI [54] of 36 µM, a TGI [19] of 24.2 µM and a TGI [20] of 40.2 µM. For the same compound, the TGI [21] was 27.9 µM, the TGI [22] was 28.3 µM and the TGI [23] was 29.2 µM. The TGI [55] was 24.6 µM, the TGI [24] was 26.9 µM and the TGI [25] was 32.4 µM. For the same compound, the TGI [56] was 18.3 µM, the TGI [27] was 40 µM and the TGI [28] was 35.4 µM. The TGI [57] was 30.9 µM, the TGI [29] was 34.6 µM and the TGI [30] was 22.4 µM. For the same compound, the TGI [58] was 25 µM, the TGI [31] was > 69.6 µM and the TGI [32] was 30.8 µM. It also gave a TGI [59] of 12.7 µM, a TGI [33] of 22.8 µM and a TGI [60] of 37.6 µM. For the same compound, the TGI [61] was 39 µM and the TGI [34] was 28.2 µM.
